From PubChem BioAssay (NCI)
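Values below derive from 48-hour exposures of cells grown in 96-well plates, with endpoints linearly interpolated between the two concentrations bracketing the appropriate inhibition level. The concentration for 50% growth inhibition is given as GI50. The concentration for full growth arrest is given as TGI.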

How the values were obtained:
Assay in all cases: inhibition of tumour cell growth, NCI panel, 48 h
MALME-3M melanoma = tested on: MALME-3M melanoma
NCI-H522 lung = tested on: NCI-H522 lung
SF-268 CNS = tested on: SF-268 CNS
MOLT-4 leukemia = tested on: MOLT-4 leukemia
SR leukemia = tested on: SR leukemia
A549 NSCLC = tested on: A549 NSCLC
TK-10 renal = tested on: TK-10 renal
NCI-H226 lung = tested on: NCI-H226 lung
PC-3 prostate = tested on: PC-3 prostate
DU-145 prostate = tested on: DU-145 prostate

| Compound | TGI (MALME-3M melanoma) | TGI (NCI-H522 lung) | TGI (SF-268 CNS) | TGI (MOLT-4 leukemia) | TGI (SR leukemia) | TGI (A549 NSCLC) | TGI (TK-10 renal) | TGI (NCI-H226 lung) | GI50 (MALME-3M melanoma) | GI50 (NCI-H522 lung) | GI50 (SF-268 CNS) | GI50 (PC-3 prostate) | TGI (PC-3 prostate) | GI50 (MOLT-4 leukemia) | GI50 (SR leukemia) | GI50 (DU-145 prostate) | GI50 (A549 NSCLC) | GI50 (TK-10 renal) | TGI (DU-145 prostate) | GI50 (NCI-H226 lung) |
| --- | --- | --- | --- | --- | --- | --- | --- | --- | --- | --- | --- | --- | --- | --- | --- | --- | --- | --- | --- | --- |
| COc1cc(Br)c(CC2=NCCc3cc(OC)c(OC)cc32)cc1OC | > 100 µM | 65.2 µM | > 100 µM | 72.5 µM | > 100 µM | > 100 µM | > 100 µM | > 100 µM |  |  |  |  |  |  |  |  |  |  |  |  |
| COc1ccc(/C=C\c2cc(OC)c(OC)c(OC)c2)c(NS(=O)(=O)c2ccc(C)cc2)c1O | > 100 µM | > 35 µM | > 91.5 µM | > 62.9 µM | > 51.5 µM | > 100 µM | > 100 µM |  | 16.8 µM | 0.0377 µM | 0.226 µM | 0.04 µM | > 100 µM | 0.0421 µM | 0.031 µM | 0.0399 µM | 0.0473 µM | 3.8 µM |  |  |
| COc1cc2c(cc1C)n(O)c(C)c(C(=O)C/C(=N/NC(=O)C[N+](C)(C)C)C(=O)Nc1cccc(Cl)c1C)[n+]2=O | > 100 µM | > 100 µM | > 100 µM | > 100 µM | > 100 µM | > 100 µM | > 100 µM | > 100 µM |  |  |  |  |  |  |  |  |  |  |  |  |
| CC1OC(O)C(O)C(O)C1O (stereo not given) | > 100 µM | > 100 µM | > 100 µM |  |  | > 100 µM | > 100 µM | > 100 µM |  |  |  |  | > 100 µM |  |  |  |  |  | > 100 µM |  |
| O=c1[nH]c(=S)[nH]c(O)c1/C=C1\C=CC=N1 | 34.4 µM | 3.59 µM | 55.1 µM | 44.3 µM | 18 µM | > 100 µM | 37.7 µM | 33.4 µM |  |  |  |  |  |  |  |  |  |  |  |  |
| O=Nc1c(O)ccc2ccccc12 |  | 4.25 µM | 10.6 µM | 28.6 µM | 5.86 µM | 17.5 µM |  | 33.4 µM |  | 2.06 µM | 3.04 µM | 1.85 µM | 8.29 µM | 3.58 µM | 2.16 µM | 3.5 µM | 4.9 µM |  | 10.5 µM | 15.6 µM |
| c1ccc(-c2nc(N3CCNCC3)c3nc(-c4ccccc4)oc3n2)cc1 | 3.19 µM | 3.86 µM | 3.46 µM |  | 1.2 µM |  | 3.32 µM |  | 1.7 µM | 1.81 µM | 1.73 µM | 1.66 µM | 3.24 µM |  | 0.298 µM | 1.86 µM |  | 1.67 µM | 3.33 µM |  |
| COc1ccc(/C=C2\N=C3SC=C(N)N3C2=O)cc1 | 1.52 µM | 1.5 µM | 7.29 µM | 2.91 µM | 4.85 µM | 15.6 µM |  | 7.04 µM | 0.23 µM | 0.314 µM | 1.82 µM | 0.559 µM | 3.57 µM | 0.28 µM | 1.02 µM | 1.2 µM | 1.64 µM |  | 2.71 µM | 1.16 µM |
| COc1ccc2c3c(c(OCCCN(C)C)nc2c1)-c1ccc(Cl)cc1C3=O | 26.4 µM | 24.1 µM | 21.8 µM | 38.2 µM |  | 23.1 µM | 15.3 µM | 21.7 µM | 10.7 µM | 7.1 µM | 6.42 µM | 4.72 µM | 19.4 µM | 0.833 µM |  | 6.08 µM | 4.39 µM | 5.39 µM | 19.1 µM | 3.52 µM |
| Cn1ccnc1C(=O)/C=C/c1ccc(C(=O)Nc2nc3ccccc3[nH]2)cc1 | > 25 µM | > 25 µM | > 25 µM | > 25 µM | > 25 µM | > 25 µM | > 25 µM |  | > 25 µM | 8.54 µM | 2.41 µM | 3.78 µM | > 25 µM | 7.26 µM | 0.956 µM | 0.92 µM | 10.3 µM | 13.3 µM | 4.63 µM |  |
| O=[As](O)(O)c1ccc(Cc2ccc([As](=O)(O)O)cc2)cc1 | 2.62 µM | 1.44 µM | 1.85 µM | 4.26 µM |  | 3.81 µM | 1.27 µM | 7.7 µM |  |  |  |  | 1.76 µM |  |  |  |  |  | 1.17 µM |  |
| O=[N+]([O-])c1ccc(Cl)c(C2SCc3nc4ccccc4n32)c1 (stereo not given) | > 100 µM | > 100 µM | > 100 µM | > 100 µM | > 100 µM | > 100 µM | > 100 µM | 69.1 µM |  |  |  |  |  |  |  |  |  |  |  |  |
| N#Cc1nc(-c2ccccc2)oc1S(=O)(=O)N1CCOCC1 | 3.15 µM | 3 µM | 40.4 µM | 5.08 µM |  | > 100 µM | 19.2 µM | 16.1 µM | 1.59 µM | 0.702 µM | 13.5 µM | 5.79 µM | 20.8 µM | 2.01 µM |  | 6.08 µM | 27.9 µM | 6.25 µM | 19.1 µM | 3.67 µM |
| CC(C)(C)CC(C)(C)c1ccc(OCCOCCSC(=N)N)cc1 |  | 3.18 µM | 12.5 µM | 6.17 µM |  | 8.77 µM | 5.19 µM |  |  | 1.71 µM | 3.58 µM | 2.37 µM | 7.25 µM | 2.35 µM |  | 1.84 µM | 2.65 µM | 2.47 µM | 3.34 µM |  |
| CCOC(=O)C(C[Si](C)(C)C)P(=O)(OCC)OCC (stereo not given) | > 100 µM | > 100 µM | > 100 µM | > 100 µM | > 100 µM | > 100 µM | > 100 µM | > 100 µM |  |  |  |  |  |  |  |  |  |  |  |  |
| O=Cc1coc2ccccc2c1=O | 30.2 µM | 48.1 µM | 56.7 µM | 96.1 µM |  | 84.9 µM | 60.5 µM | 84.4 µM |  |  |  |  | 53.7 µM |  |  |  |  |  | > 100 µM |  |
| C[Se]C(=O)CC1=C2C=C(F)C=CC2/C(=C\c2ccc(S(C)=O)cc2)C1C (stereo not given) | 0.4 µM | 2.92 µM | 0.0242 µM | > 100 µM | > 100 µM | 2.66 µM |  | 0.317 µM | 0.156 µM | 0.404 µM | < 0.01 µM | 0.174 µM | 1.95 µM | 0.392 µM | 1.17 µM | 0.0187 µM | 0.0257 µM |  | 1.16 µM | < 0.0164 µM |
| COC(=O)C1=C(C(=O)OC)C2(C(=O)OC)OC1(OC)C(C1(C(=O)OC)C(C(=O)OC)=C1C(=O)OC)=C2C(=O)OC (stereo not given) | > 100 µM | > 100 µM | > 100 µM | > 100 µM | > 100 µM | > 100 µM | > 100 µM | > 100 µM |  |  |  |  |  |  |  |  |  |  |  |  |
